According to ChEMBL document CHEMBL3603836, “Hybrid pyrimidine alkynyls inhibit the clinically resistance related Bcr-Abl(T315I) mutant” (Bioorg Med Chem Lett, 2015):
pIC50: −log10 of the molar value.

What was measured:
K562 = assay: cells; conditions: Homo sapiens, K562, 72 h
Description: Antiproliferative activity against human K562 cells expressing wild type Bcr-Abl after 72 hrs by CCK-8 assay

cells = conditions: Mus musculus, BaF3, 72 h
Bcr/Abl fusion protein [1] = molecular target: Bcr/Abl fusion protein (Homo sapiens, UniProt P00519); type: protein assay
Description: Inhibition of wild type Bcr-Abl (unknown origin) using Tyr2 peptide substrate after 2 hrs by FRET-based Z'-lyte assay

Bcr/Abl fusion protein [2] = molecular target: Bcr/Abl fusion protein (Homo sapiens, UniProt P00519, T315I); type: protein assay
[3] = Antiproliferative activity against mouse BA/F3 cells expressing wild type Bcr-Abl after 72 hrs by CCK-8 assay; type: functional, cell-based; conditions: BaF3, 72 h
Rattus norvegicus [4] = assay: AUC (0 to infinity) in Sprague-Dawley rat at 25 mg/kg, po; type: ADME, organism-based; design: dose 25 mg/kg, time infinity, route oral; conditions: in vivo
[5] = Cmax in Sprague-Dawley rat at 25 mg/kg, po; type: ADME, organism-based; design: dose 25 mg/kg, route oral; conditions: in vivo
[6] = Tmax in Sprague-Dawley rat at 25 mg/kg, po; type: ADME, organism-based; conditions: in vivo
[7] = Half life in Sprague-Dawley rat at 25 mg/kg, po; type: ADME, organism-based; conditions: in vivo
Rattus norvegicus [8] = assay: AUC (0 to infinity) in Sprague-Dawley rat at 10 mg/kg, iv; type: ADME, organism-based; design: dose 10 mg/kg, time infinity, route intravenous; conditions: in vivo
[9] = Cmax in Sprague-Dawley rat at 10 mg/kg, iv; type: ADME, organism-based; design: dose 10 mg/kg, route intravenous; conditions: in vivo
[10] = Tmax in Sprague-Dawley rat at 10 mg/kg, iv; type: ADME, organism-based; conditions: in vivo
[11] = Half life in Sprague-Dawley rat at 10 mg/kg, iv; type: ADME, organism-based; conditions: in vivo

Row | SMILES | pIC50 (K562) | pIC50 (cells) | pIC50 (Bcr/Abl fusion protein [1]) | pIC50 (Bcr/Abl fusion protein [2]) | AUC (Rattus norvegicus [4]) | Cmax [5] | Tmax [6] | half-life [7] | AUC (Rattus norvegicus [8]) | Cmax [9] | Tmax [10] | half-life [11] | pIC50 [3]
1 | Cc1ccc(NC(=O)c2ccc(CN3CCN(C)CC3)cc2)cc1Nc1nccc(-c2cccnc2)n1 [IMATINIB] | 6.55 | < 6.00 | – | – | – | – | – | – | – | – | – | – | –
2 | Cc1cn(-c2cc(NC(=O)c3ccc(C)c(C#Cc4cnc(Nc5ccccc5)nc4)c3)cc(C(F)(F)F)c2)cn1 | 6.95 | 5.62 | 6.62 | 6.79 | – | – | – | – | – | – | – | – | 6.68
3 | Cc1cn(-c2cc(NC(=O)c3ccc(C)c(C#Cc4cnc(N5CCCCC5)nc4)c3)cc(C(F)(F)F)c2)cn1 | 6.19 | < 5.00 | 6.04 | < 6.00 | – | – | – | – | – | – | – | – | 6.17
4 | Cc1cn(-c2cc(NC(=O)c3ccc(C)c(C#Cc4cnc(N5CCCC5)nc4)c3)cc(C(F)(F)F)c2)cn1 | < 6.03 | < 5.00 | < 6.00 | < 6.00 | – | – | – | – | – | – | – | – | < 6.00
5 | Cc1cn(-c2cc(NC(=O)c3ccc(C)c(C#Cc4cnc(NC(C)(C)C)nc4)c3)cc(C(F)(F)F)c2)cn1 | 7.64 | 6.87 | 7.55 | 7.62 | – | – | – | – | – | – | – | – | 7.42
6 | Cc1cn(-c2cc(NC(=O)c3ccc(C)c(C#Cc4cnc(N5CCOCC5)nc4)c3)cc(C(F)(F)F)c2)cn1 | 6.45 | 5.07 | 6.52 | < 6.00 | – | – | – | – | – | – | – | – | 6.53
7 | Cc1cn(-c2cc(NC(=O)c3ccc(C)c(C#Cc4cnc(NC(C)C)nc4)c3)cc(C(F)(F)F)c2)cn1 | 7.57 | 5.94 | 6.90 | 6.73 | – | – | – | – | – | – | – | – | 7.64
8 | Cc1cn(-c2cc(NC(=O)c3ccc(C)c(C#Cc4cnc(NC5CCCCC5)nc4)c3)cc(C(F)(F)F)c2)cn1 | 7.52 | 5.57 | 7.03 | 6.34 | – | – | – | – | – | – | – | – | 7.31

Stronger by pIC50 (K562), values ahead:

Row | pIC50 (K562) | pIC50 (cells) | pIC50 (Bcr/Abl fusion protein [1]) | pIC50 (Bcr/Abl fusion protein [2]) | AUC (Rattus norvegicus [4]) | Cmax [5] | Tmax [6] | half-life [7] | AUC (Rattus norvegicus [8]) | Cmax [9] | Tmax [10] | half-life [11] | SMILES | pIC50 [3]
9 | 9.00 | < 6.00 | – | – | – | – | – | – | – | – | – | – | Cc1nc(Nc2ncc(C(=O)Nc3c(C)cccc3Cl)s2)cc(N2CCN(CCO)CC2)n1 [DASATINIB] | –
10 | 8.15 | 7.07 | 8.00 | 8.22 | 48574 µg/L/h | 3.09 µg/mL | 2 h | 7.8 h | 35809 µg/L/h | 11 µg/mL | 1.98 min | 7.5 h | CNc1ncc(C#Cc2cc(C(=O)Nc3cc(-n4cnc(C)c4)cc(C(F)(F)F)c3)ccc2C)cn1 | 8.52
11 | 9.00 | 7.11 | 8.10 | 8.15 | – | – | – | – | – | – | – | – | Cc1cn(-c2cc(NC(=O)c3ccc(C)c(C#Cc4cnc(N)nc4)c3)cc(C(F)(F)F)c2)cn1 | 8.70
12 | 8.22 | 6.95 | 7.52 | 7.72 | – | – | – | – | – | – | – | – | CCNc1ncc(C#Cc2cc(C(=O)Nc3cc(-n4cnc(C)c4)cc(C(F)(F)F)c3)ccc2C)cn1 | 8.10
13 | 7.89 | 5.97 | 7.74 | 7.72 | – | – | – | – | – | – | – | – | Cc1cn(-c2cc(NC(=O)c3ccc(C)c(C#Cc4cnc(NCCO)nc4)c3)cc(C(F)(F)F)c2)cn1 | 7.77
14 | 7.66 | – | – | – | – | – | – | – | – | – | – | – | Cc1cn(-c2cc(NC(=O)c3ccc(C)c(Nc4nccc(-c5cccnc5)n4)c3)cc(C(F)(F)F)c2)cn1 [NILOTINIB] | –
